# Measured values: patent US12161609B2, “Composition and method for treating autism spectrum disorder (ASD) symptoms of paranoia with self isolation and/or aggression” (priority 2021, dated 2024)
# Columns and labels:
# [1] = tested on: ASD aggression toward others or self and paranoia/social isolation; details: for aggression and self-injury: Example 1: ASD person (when on the combination); for aggression and self-injury / paranoia/social isolation behavior: combination dosed twice daily as in TABLE 1; for loss of effectiveness (tachyphylaxis): after two years use
# [2] = tested on: autistic patients; details: oxcarbazepine alone vs. placebo, 2011 to 2021; cited from earlier work
SMILES,aggression and self-injury [1],paranoia/social isolation behavior ([1]; Example 1: ASD person),loss of effectiveness (tachyphylaxis) ([1]; summary over the ASD subjects),further results
O=C1CCc2ccc(OCCCCN3CCN(c4cccc(Cl)c4Cl)CC3)cc2N1 [aripiprazole],successful alleviation of aggression,improvement in paranoia/social isolation behaviors,tachyphylactic loss of effectiveness,"dyskinesia / tardive dyskinesia and dystonias ([1]; Example 1: ASD person): developed tardive dyskinesia and dystonias; drug-induced hallucinations, aggression and paranoia ([1]; Example 1: within a half hour of taking the drug, after 1 and ½ years of use): induced hallucinations, severe aggression and paranoia; tardive dyskinesia / dystonic side effects ([1]; summary over the ASD subjects, long-term use (two years for the antipsychotics)): developed tardive dyskinesia"
CNCCC(Oc1ccc(C(F)(F)F)cc1)c1ccccc1 (stereo not drawn) [fluoxetine],self-injury slightly decreased,remained paranoid,–,ability to attend school ([1]; Example 1: ASD person): unable to attend schooling
NC(=O)N1c2ccccc2CC(=O)c2ccccc21 [oxcarbazepine],–,–,–,adverse effects in autistic subjects [2]: so many adverse effects in autistic subjects that they drop out of the study
Cc1nc2n(c(=O)c1CCN1CCC(c3noc4cc(F)ccc34)CC1)CCCC2 [risperidone],–,–,tachyphylactic loss of effectiveness,"self-injury behavior, aggression toward others and social isolation symptoms ([1]; Example 3: adult ASD, combination dosed early morning and after 5:00 pm): could no longer be successfully treated"
